The values below come from patent US12037327B2, “Compounds and methods targeting GPER for treatment of diseases associated with calcium” (Saint Louis University, priority 2018, dated 2024).

By EC50 is commonly meant the midpoint of the concentration-response curve.

“Also recorded” adds a separate entry of the source.

The target of test [1] is T1, GPER (Homo sapiens, UniProt Q99527).
T1 construct: siRNA was used to knock-down expression of GPER; endogenous in cells; host or cells: HL-60 (human myelocytic leukemia) cells
In words: cAMP competition study with selective GPER antagonist in HL-60 cells. Format: cell-based. The conditions noted are these: EC50 of G-36 plus 1 μM agonist, compared to agonist alone at 1 μM. The procedure: In cAMP competition studies HL-60 cells were grown in 10% charcoal-stripped RPMI media for 72 hours prior to assays. Cells were centrifuged and counted with a hemocytometer from Hausser Scientific (Horsham, PA). The total number of cells needed to complete the assay was determined based upon 8,000 cells/well. The determined number of cells was diluted in 5:1 (5×) stimulation buffer contain 500 μM of 3-isobutyl-1-methylxanthine (IBMX) (Sigma Aldrich, Saint Louis, MO). […] Following the incubation period, 2 μL of various concentrations of compound (5×) were added. […] The plate was sealed and incubated at 37° C. for 10 minutes. After 10 minutes a 4:1 ratio of lysis buffer to donor/acceptor were individually prepared and 5 μL of lysis buffer/cAMP-d2 (acceptor) and 5 μL of lysis buffer/monocolonal anti-cAMP Eu3+ cryptate (donor) were added to all wells. The assay plate was sealed and incubated at room temperature for 30 minutes before being read at λex 314 nm and λem 665 nm/λem 620.

The target in a further test is T2, ERβ (Homo sapiens, UniProt Q92731).
T2 construct: purchased Invitrogen (Carlsbad, CA)
Put plainly: ERβ PolarScreen fluorescence polarization competitor assay. In kind it is binding. The conditions noted are these: duplicate. The procedure:
FIGS. 3A & 3B show fluorescence polarization studies performed on classical estrogen receptors, ERα and ERβ, to determine off-target binding. Studies were performed in duplicate. […] Overall, it appears that compound 1 binds greater to ERβ than ERα and compound 2 binds to ERα but not ERβ.
The ERα and ERβ PolarScreen™ Competitor Assays by Invitrogen (Carlsbad, CA) were purchased and utilized to determine binding to the classical nuclear esetrogen recetors, ERα and ERβ. The concentrations of the ERα and ERβ enzyme varied between the two assays. A 4× sample of ERα was prepared for a final concentration of 75 nM. Conversely, a 4× sample of ERβ was prepared for a final concentration of 23 nM within the assay. For both ERα and ERβ a 4× aliquot of Fluoromone was prepared for a final assay concentration of 4.5 nM. Despite the differences in concentration of ERα and ERβ, the binding assay protocol for the two different enzymes remained the same. Drug dilutions were prepared for a 2× dilution in the ER specific buffer that was provided within the assay kit. In addition to the drug dilutions a 2× aliquot of Fluoromone was prepared by adding 10 uL of 4× with 10 uL of ER specific buffer. A 2× dilution of enzyme and fluorophore was achieved by adding equal portions of each to each other. […] The plate was incubated at RT for 2 hours before being read with λex 485 nm and λem 535 nm.
In general terms: Fluorescence polarisation rises when a labelled molecule tumbles more slowly, as on binding a larger partner.

The target of test [2] is T3, G protein-coupled estrogen receptor (GPER) (Homo sapiens, UniProt Q99527).
T3 construct: siRNA was used to knock-down expression of GPER; endogenous in cells; host or cells: HL-60 (human myelocytic leukemia) cells
Put plainly: calcium mobilization assay in HL-60 cells (Indo-1AM). The conditions noted are these: triplicate runs on triplicate plates, read-out: EC50 (Ca^2+). In kind it is cell-based. As for the experimental part:
For the calcium mobilization studies, Human Myelocytic Leukemia (HL-60) cells were grown in phenol red free media containing 10% activated fetal bovine serum (FBS), 1% Pen-Strep, and 1% Glutamax. Cells were grown to no more than 1×10^6 cells/mL to prevent differentiation before being split. Prior to assay cells were transferred to phenol red free media containing charcoal-stripped FBS. On the day of the assay cells were centrifuged down at 16.4 G for 5 minutes and washed with 50:1 HBSS/HEPES. Cells were resuspended at 1×10^7 cells/mL in 50:1 HBSS/HEPES. To the resuspended cells, […] pluronic acid and 5 uM of fluorescent calcium indicator, Indo-1AM, were added. The dye solution was incubated for 0.5 hrs at room temperature with rocking. After 30 minutes cells were spun down, and resuspended in 50:1 HBSS/HEPES. Cells were placed on ice for at least 5 minutes and then resuspended in 8.5 mL of 50:1 HBSS/HEPES for agonism assays. For agonism assays 160 μL of cell suspension were added to a 96-well plate and were incubated at […] for 20 minutes in a FlexStation® 3 plate reader (Molecular Devices). Inside the plate reader, 40 μL of agonist were added to each well and excited with 350 nm and read at emissions of 405 nm and 490 nm.
Calcium mobilization signal was assessed with the use of 0.1% pluronic acid and 5 μM Indo-1AM, a ratiometric dye. The EC50 values were determined based upon triplicate runs on triplicate plates. […] Cyclic AMP formation through the Gi/o-pathway was monitored utilizing a homogenous time-resolved fluorescence assay purchased from CisBio. A triplicate was performed and an EC50 value was calculated. […] The EC50 values were determined based upon triplicate runs on a triplicate plates.

Test [3] has as its target T1, GPER. Put plainly: calcium mobilization assay, agonists tested against EC50 of GPER antagonist G-36. Format: cell-based. The conditions noted are these: for change in calcium efflux in response to G-36: agonist at 100 nM against EC50 of G-36, normalized. As for the experimental part:
Each signal was normalized to the baseline signaling of G-36 and the maximum signal achieved by the specific agonist. Results are shown at 100 nM.
Calcium mobilization signal was assessed with the use of 0.1% pluronic acid and 5 μM Indo-1AM, a ratiometric dye. The EC50 values were determined based upon triplicate runs on triplicate plates. […] Cyclic AMP formation through the Gi/o-pathway was monitored utilizing a homogenous time-resolved fluorescence assay purchased from CisBio. A triplicate was performed and an EC50 value was calculated. […] The EC50 values were determined based upon triplicate runs on a triplicate plates. To confirm that calcium efflux originated from activation of the G protein-coupled estrogen receptor (GPER), a known selective antagonist, G-36 was used to antagonize the signal. […] Additional data can be found in FIG. 9. […] Without wishing to be bound by any theory, it is believed that within the new functionalization of the scaffold the lone pair on the oxygen of furfuran ring system and the nitrogen on pyridinyl ring system work to activate the receptor. […] Based upon neurite outgrowth studies and without wishing to be bound by any theory, it is believed that the compounds may aid in the elongation and connectivity of neurons. This has implication in a variety of neurodegenerative diseases, such as Alzheimer's disease and Parkinson's disease, but also psychiatric illnesses including Austism and Schizophrenia.

Test [4] has as its target T1, GPER. In words: calcium mobilization after siRNA knock down of GPER in HL-60 cells. In kind it is cell-based. The note with it: HL-60 cells not treated with siRNA; 1 μM.

T1 sequence (Q99527 whole entry): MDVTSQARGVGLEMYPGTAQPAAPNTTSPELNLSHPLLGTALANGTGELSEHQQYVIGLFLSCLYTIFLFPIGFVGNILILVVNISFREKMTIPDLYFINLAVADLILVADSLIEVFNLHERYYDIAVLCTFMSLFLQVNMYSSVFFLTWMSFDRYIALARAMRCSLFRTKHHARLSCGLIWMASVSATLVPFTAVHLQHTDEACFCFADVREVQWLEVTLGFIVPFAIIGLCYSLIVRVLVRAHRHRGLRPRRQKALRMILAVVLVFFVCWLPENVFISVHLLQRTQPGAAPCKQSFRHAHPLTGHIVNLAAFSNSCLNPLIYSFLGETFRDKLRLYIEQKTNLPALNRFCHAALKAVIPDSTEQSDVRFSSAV
T2 sequence (Q92731 whole entry): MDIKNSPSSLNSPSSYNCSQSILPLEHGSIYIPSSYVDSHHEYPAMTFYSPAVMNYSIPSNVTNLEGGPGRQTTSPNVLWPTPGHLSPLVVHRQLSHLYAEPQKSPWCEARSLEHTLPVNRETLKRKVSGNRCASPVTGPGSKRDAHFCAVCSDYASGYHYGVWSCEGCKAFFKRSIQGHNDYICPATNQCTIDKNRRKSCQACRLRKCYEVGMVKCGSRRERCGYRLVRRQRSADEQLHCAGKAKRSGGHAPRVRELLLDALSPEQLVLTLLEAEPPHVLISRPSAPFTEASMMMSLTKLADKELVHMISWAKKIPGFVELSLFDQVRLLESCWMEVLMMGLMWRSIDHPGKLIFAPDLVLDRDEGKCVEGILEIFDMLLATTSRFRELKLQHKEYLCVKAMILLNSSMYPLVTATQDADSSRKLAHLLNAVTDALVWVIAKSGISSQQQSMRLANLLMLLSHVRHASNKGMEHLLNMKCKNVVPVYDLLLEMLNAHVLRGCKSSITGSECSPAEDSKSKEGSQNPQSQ
T3 sequence (Q99527 whole entry): as the sequence (Q99527 whole entry) above

Consider `CC(C)c1ccc(NCc2ccc(CO)o2)c(C2CCCCC2)c1` [Compound 1], for which the “activation of adenylate cyclase and cAMP formation when challenged against G-36” value at GPER [1] is “statistically significant reduction”. In addition, the “binding to ERβ” value on ERβ was “exhibit binding; also recorded: appeared to show binding”. For the same compound, the EC50 in test [2] turned out to be 1300 ± 322 nM. Moreover, the “change in calcium efflux in response to G-36” value at GPER [3] is reported as “significant increase”. The “calcium compared to the vehicle control, no siRNA” value at GPER [4] was “no statically significant difference”.

For `CC(C)c1ccc(NCc2ccoc2)c(C2CCCCC2)c1` [Compound 2], on GPER [1], the “activation of adenylate cyclase and cAMP formation when challenged against G-36” value is listed as “statistically significant reduction”. Also, the “binding to ERβ” value on ERβ is listed as “exhibit binding; also recorded: binding trend for compound 2 was less consistent”. In addition, the EC50 in test [2] came out at 699 ± 85 nM. Besides, the “change in calcium efflux in response to G-36” value at GPER [3] is listed as “significant increase”. Besides, the “calcium signal when antagonized with G-36” value on GPER [3] (concentration not given) is “reduced to basal response”. Moreover, the “calcium compared to the vehicle control, no siRNA” value on GPER [4] is listed as “no statically significant difference”.
